Data as given in US20220054469A1, “FARNESOID X RECEPTOR AGONISTS AND USES THEREOF” (Metacrine, Inc., priority 2018, published 2022).

Target: T1, hFXR (Homo sapiens, UniProt Q96RI1)
T1 construct: expressed in transfected cells; host or cells: CV-1 cells
T1 sequence (Q96RI1 1-486): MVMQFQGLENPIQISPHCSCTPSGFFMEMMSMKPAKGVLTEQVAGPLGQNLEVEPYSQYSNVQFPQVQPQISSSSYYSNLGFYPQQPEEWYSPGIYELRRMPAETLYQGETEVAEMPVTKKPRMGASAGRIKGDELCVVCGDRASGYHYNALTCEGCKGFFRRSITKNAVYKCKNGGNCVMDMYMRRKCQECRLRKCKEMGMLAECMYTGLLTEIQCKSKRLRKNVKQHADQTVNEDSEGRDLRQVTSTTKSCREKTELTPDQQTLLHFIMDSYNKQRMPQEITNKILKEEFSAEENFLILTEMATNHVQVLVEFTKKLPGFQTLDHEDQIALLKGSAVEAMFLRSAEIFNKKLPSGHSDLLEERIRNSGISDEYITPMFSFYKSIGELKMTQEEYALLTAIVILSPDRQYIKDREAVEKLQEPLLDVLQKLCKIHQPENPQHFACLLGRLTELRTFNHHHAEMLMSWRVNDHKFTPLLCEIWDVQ
T1 sequence (P19793 1-462 partner): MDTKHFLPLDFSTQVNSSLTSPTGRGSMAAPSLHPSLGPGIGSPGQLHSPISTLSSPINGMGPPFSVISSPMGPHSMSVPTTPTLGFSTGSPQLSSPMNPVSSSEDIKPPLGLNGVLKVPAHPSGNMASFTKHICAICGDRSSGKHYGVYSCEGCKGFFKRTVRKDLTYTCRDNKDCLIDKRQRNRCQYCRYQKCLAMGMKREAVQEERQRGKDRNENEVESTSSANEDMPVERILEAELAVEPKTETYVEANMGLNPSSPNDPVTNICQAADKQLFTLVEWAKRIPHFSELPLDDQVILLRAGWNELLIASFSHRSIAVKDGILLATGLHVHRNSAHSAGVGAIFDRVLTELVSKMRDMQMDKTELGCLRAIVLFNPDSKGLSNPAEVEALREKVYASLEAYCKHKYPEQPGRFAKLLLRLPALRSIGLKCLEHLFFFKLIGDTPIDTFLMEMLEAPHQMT
Experiment: In Vitro FXR Assay (TK)
Assay type: cell-based
Conditions: CV-1 cells transfected with hFXR, hRXR, TK-ECRE-luc and pCMX-YFP; incubated with compound for 18 hrs; luminescence
Procedure: Example B-1: In Vitro FXR Assay (TK)
CV-1 cells were seeded at a density of 2,000,000 cells in a T175 flask with DMEM+10% charcoal double-stripped FBS and incubated at 37° C. in 5% CO2 for 18 h (O/N).
After 18 h of incubation, the medium in the T175 flask was changed with fresh DMEM+10% charcoal super-stripped serum. In a polypropylene tube, 2500 μL OptiMEM (Life Technologies, Cat #31985-062) was combined with expression plasmids for hFXR, hRXR, TK-ECRE-luc and pCMX-YFP. The tube was then briefly vortexed and incubated at room temperature for 5 minutes. Transfection reagent (X-tremeGENE HP from Roche, Cat #06 366 236 001) was added to the OptiMEM/plasmid mixture vortexed and incubated at room temperature for 20 minutes. Following incubation, the transfection reagent/DNA mixture complex was added to cells in the T175 flask and the cells were incubated at 37° C. in 5% CO2 for 18 h (O/N).
Compounds were serially diluted in DMSO and added to transfected CV-1 cells. The cells were then incubated for 18 hrs. The next day cells were lysed and examined for luminescence.

SMILES	EC50
COc1ccc(C23CCC(CN(c4cc(-c5cnn(C(C)(C)C)c5)ccn4)C(=O)[C@H]4CC[C@H](CC(=O)O)CC4)(CC2)CC3)cc1C [Compound 4.04, trans-2-(4-((4-(1-(tert-Butyl)-1H-pyrazol-4-yl)pyridin-2-yl)((4-(4-methoxy-3-methylphenyl)bicyclo[2.2.2]octan-1-yl)methyl)carbamoyl)cyclohexyl)acetic acid]	≤ 0.05 µM
COc1ccc(C23CCC(CN(c4cc(-c5cnn(C(C)C)c5)ccn4)C(=O)[C@H]4CC[C@@H](C(=O)O)CC4)(CC2)CC3)cc1C [Compound 3.01, cis-4-((4-(1-Isopropyl-1H-pyrazol-4-yl)pyridin-2-yl)((4-(4-methoxy-3-methylphenyl)bicyclo[2.2.2]octan-1-yl)methyl)carbamoyl)cyclohexanecarboxylic acid]	0.05 to 1 µM
COc1ccc([C@H]2CC[C@H](CN(c3cccc(-c4cnn(C(C)(C)C)c4)c3)C(=O)[C@H]3CC[C@H](CCC(=O)O)CC3)CC2)cc1C [Compound 3.03, trans-3-(4-((3-(1-(tert-Butyl)-1H-pyrazol-4-yl)phenyl)((trans-4-(4-methoxy-3-methylphenyl)cyclohexyl)methyl)carbamoyl)cyclohexyl)propanoic acid]	≤ 0.05 µM
COc1ccc([C@H]2CC[C@H](CN(c3cc(-c4cnc(C(C)C)s4)ccn3)C(=O)[C@H]3CC[C@H](CC(=O)O)CC3)CC2)cc1C [Compound 2.12, 2-(trans-4-((4-(2-Isopropylthiazol-5-yl)pyridin-2-yl)((trans-4-(4-methoxy-3-methylphenyl)cyclohexyl)methyl)carbamoyl)cyclohexyl)acetic acid]	≤ 0.05 µM
COc1ccc([C@H]2CC[C@H](CN(c3cccc(-c4cnn(C(C)C)c4)c3)C(=O)[C@H]3CC[C@H](C(=O)O)CC3)CC2)cc1C [Compound 2.01, trans-4-((3-(1-Isopropyl-1H-pyrazol-4-yl)phenyl)((trans-4-(4-methoxy-3-methylphenyl)cyclohexyl)methyl)carbamoyl) cyclohexanecarboxylic acid]	≤ 0.05 µM
COc1ncc(C23CCC(CN(c4cc(-c5cnn(C(C)C)c5)ccn4)C(=O)[C@H]4CC[C@H](CC(=O)O)CC4)(CC2)CC3)cc1C [Compound 4.12, trans-2-(4-((4-(1-Isopropyl-1H-pyrazol-4-yl)pyridin-2-yl)((4-(6-methoxy-5-methylpyridin-3-yl)bicyclo[2.2.2]octan-1-yl)methyl)carbamoyl)cyclohexyl)acetic acid]	≤ 0.05 µM
COc1ccc(C23CCC(CN(c4cc(-c5coc(C(C)C)n5)ccn4)C(=O)[C@H]4CC[C@H](CC(=O)O)CC4)(CC2)CC3)cc1C [Compound 4, trans-2-(4-((4-(2-Isopropyloxazol-4-yl)pyridin-2-yl)((4-(4-methoxy-3-methylphenyl)bicyclo[2.2.2]octan-1-yl)methyl)carbamoyl)cyclohexyl)acetic acid]	≤ 0.05 µM
COc1ccc(C23CCC(CN(c4cc(-c5cnn(C(C)C)c5)ccn4)C(=O)[C@H]4CC[C@H](CC(=O)O)CC4)(CC2)CC3)cc1C [Compound 1.01, trans-2-(4-((4-(1-Isopropyl-1H-pyrazol-4-yl)pyridin-2-yl)((4-(4-methoxy-3-methylphenyl)bicyclo[2.2.2]octan-1-yl)methyl)carbamoyl)cyclohexyl)acetic acid]	≤ 0.05 µM
COc1ccc(C23CCC(CN(c4cc(-c5cnn(C(C)C)c5)ccn4)C(=O)[C@H]4CC[C@H](C(=O)O)CC4)(CC2)CC3)cc1C [Compound 4.02, trans-4-((4-(1-Isopropyl-1H-pyrazol-4-yl)pyridin-2-yl)((4-(4-methoxy-3-methylphenyl)bicyclo[2.2.2]octan-1-yl)methyl)carbamoyl)cyclohexanecarboxylic acid]	≤ 0.05 µM
COc1ccc(C23CCC(CN(c4cc(-c5ccn(C(C)C)n5)ccn4)C(=O)[C@H]4CC[C@H](CC(=O)O)CC4)(CC2)CC3)cc1C [Compound 4.23, trans-2-(4-((4-(1-Isopropyl-1H-pyrazol-3-yl)pyridin-2-yl)((4-(4-methoxy-3-methylphenyl)bicyclo[2.2.2]octan-1-yl)methyl)carbamoyl)cyclohexyl)acetic acid]	≤ 0.05 µM
COc1ccc(C23CCC(CN(c4cc(-c5cnn(C(C)C)c5)ncn4)C(=O)[C@H]4CC[C@H](CC(=O)O)CC4)(CC2)CC3)cc1C [Compound 3, trans-2-(4-((6-(1-Isopropyl-1H-pyrazol-4-yl)pyrimidin-4-yl)((4-(4-methoxy-3-methylphenyl)bicyclo[2.2.2]octan-1-yl)methyl)carbamoyl)cyclohexyl)acetic acid]	0.05 to 1 µM
COc1ncc(C23CCC(CN(c4cccc(-c5cnn(C(C)(C)C)c5)c4)C(=O)[C@H]4CC[C@H](CC(=O)O)CC4)(CC2)CC3)cc1C [Compound 2.07, trans-2-(4-((3-(1-(tert-Butyl)-1H-pyrazol-4-yl)phenyl)((4-(6-methoxy-5-methylpyridin-3-yl)bicyclo[2.2.2]octan-1-yl)methyl)carbamoyl)cyclohexyl)acetic acid]	≤ 0.05 µM
COc1ccc(C23CCC(CN(c4cccc(-c5cnn(C(C)C)c5)c4F)C(=O)[C@H]4CC[C@H](CC(=O)O)CC4)(CC2)CC3)cc1C [Compound 2.08, trans-2-(4-((2-Fluoro-3-(1-isopropyl-1H-pyrazol-4-yl)phenyl)((4-(4-methoxy-3-methylphenyl)bicyclo[2.2.2]octan-1-yl)methyl)carbamoyl)cyclohexyl)acetic acid]	≤ 0.05 µM
COc1ccc(C23CCC(CN(c4nccc(-c5cnn(C(C)C)c5)n4)C(=O)[C@H]4CC[C@H](CC(=O)O)CC4)(CC2)CC3)cc1C (relative stereo) [Compound 4.09, trans-2-(4-((4-(1-Isopropyl-1H-pyrazol-4-yl)pyrimidin-2-yl)((4-(4-methoxy-3-methylphenyl)bicyclo[2.2.2]octan-1-yl)methyl)carbamoyl)cyclohexyl)acetic acid]	≤ 0.05 µM
COc1ccc(C23CCC(CN(C(=O)[C@@H]4CCC[C@@H](C(=O)O)C4)c4cc(-c5cnn(C(C)C)c5)ccn4)(CC2)CC3)cc1C (relative stereo) [Compound 3.06, trans-3-((4-(1-Isopropyl-1H-pyrazol-4-yl)pyridin-2-yl)((4-(4-methoxy-3-methylphenyl)bicyclo[2.2.2]octan-1-yl)methyl)carbamoyl)cyclohexanecarboxylic acid]	0.05 to 1 µM
COc1ccc(C23CCC(CN(c4cc(-c5nnc(C(C)C)o5)ccn4)C(=O)[C@H]4CC[C@H](CC(=O)O)CC4)(CC2)CC3)cc1C [Compound 4.19, trans-2-(4-((4-(5-lsopropyl-1,3,4-oxadiazol-2-yl)pyridin-2-yl)((4-(4-methoxy-3-methylphenyl)bicyclo[2.2.2]octan-1-yl)methyl)carbamoyl)cyclohexyl)acetic acid]	0.05 to 1 µM
COc1ccc(C23CCC(CN(c4cccc(-c5cnn(C(C)C)c5)c4)C(=O)[C@H]4CC[C@H](C(=O)O)CC4)(CC2)CC3)cc1C [Compound 4.01, trans-4-((3-(1-Isopropyl-1H-pyrazol-4-yl)phenyl)((4-(4-methoxy-3-methylphenyl)bicyclo[2.2.2]octan-1-yl)methyl)carbamoyl)cyclohexanecarboxylic acid]	≤ 0.05 µM
COc1ccc(C23CCC(CN(c4cc(-c5cnn(C(C)(C)C)c5)ccn4)C(=O)[C@H]4CC[C@H](C(=O)O)CC4)(CC2)CC3)cc1C [Compound 4.03, trans-4-((4-(1-(tert-Butyl)-1H-pyrazol-4-yl)pyridin-2-yl)((4-(4-methoxy-3-methylphenyl)bicyclo[2.2.2]octan-1-yl)methyl)carbamoyl)cyclohexanecarboxylic acid]	≤ 0.05 µM
COc1ccc(C23CCC(CN(c4cc(-c5cnn(C(C)(C)C)c5)ccn4)C(=O)[C@H]4CC[C@H](CCC(=O)O)CC4)(CC2)CC3)cc1C [Compound 3.04, trans-3-(4-((4-(1-(tert-Butyl)-1H-pyrazol-4-yl)pyridin-2-yl)((4-(4-methoxy-3-methylphenyl)bicyclo[2.2.2]octan-1-yl)methyl)carbamoyl)cyclohexyl)propanoic acid]	≤ 0.05 µM
